{"source": "ChEMBL document CHEMBL1255532", "about": "“Cytotoxic cycloartane triterpene and rare isomeric bisclerodane diterpenes from the leaves of Polyalthia longifolia var. pendula” (Bioorg Med Chem Lett, 2010)", "key": {"C-33-A": {"system": "C-33-A", "test": "Cytotoxicity against human C33A cells after 48 hrs by SRB assay", "assay_type": "functional, cell-based"}, "[1]": {"test": "Cytotoxicity against mouse NIH/3T3 cells after 48 hrs by SRB assay", "assay_type": "cell-based", "conditions": "NIH3T3, 48 h"}, "MCF7": {"system": "MCF7", "test": "Cytotoxicity against human MCF7 cells after 48 hrs by SRB assay", "assay_type": "functional, cell-based", "conditions": "MCF7, 48 h"}, "KB": {"system": "KB", "test": "Cytotoxicity against human KB cells after 48 hrs by SRB assay", "assay_type": "functional, cell-based"}, "A549": {"system": "A549", "test": "Cytotoxicity against human A549 cells after 48 hrs by SRB assay", "assay_type": "functional, cell-based", "conditions": "A549, 48 h"}}, "data": [{"smiles": "CC1=CCC[C@@H]2[C@@](C)(CCC3=CC(=O)N(/C=C(\\CC[C@@]4(C)[C@H](C)CC[C@@]5(C)C(C)=CCC[C@H]45)CC(=O)O)C3=O)[C@H](C)CC[C@@]12C", "note": "[LONGIMIDE A]", "values": [{"measurement": "IC50", "setting": "C-33-A", "value": 4.12, "unit": "µg/mL"}, {"measurement": "IC50", "setting": "[1]", "value": 44.7, "unit": "µg/mL"}, {"measurement": "IC50", "setting": "MCF7", "value": 9.23, "unit": "µg/mL"}, {"measurement": "IC50", "setting": "KB", "value": 8.85, "unit": "µg/mL"}, {"measurement": "IC50", "setting": "A549", "value": 10.1, "unit": "µg/mL"}]}, {"smiles": "C=C(C(C)C)[C@@H](O)C[C@@H](C)[C@H]1[C@@H](O)C[C@@]2(C)[C@@H]3CC[C@H]4C(C)(C)[C@@H](O)CC[C@@]45C[C@@]35CC[C@]12C", "note": "[LONGITRIOL]", "values": [{"measurement": "IC50", "setting": "C-33-A", "value": 10, "unit": "µg/mL"}, {"measurement": "IC50", "setting": "[1]", "value": "> 50", "unit": "µg/mL"}, {"measurement": "IC50", "setting": "MCF7", "value": 30.9, "unit": "µg/mL"}, {"measurement": "IC50", "setting": "KB", "value": 24.1, "unit": "µg/mL"}, {"measurement": "IC50", "setting": "A549", "value": 13.2, "unit": "µg/mL"}]}, {"smiles": "COc1cccc2c1C(=O)c1c(O)c3c(c(O)c1C2=O)C[C@@](O)(C(=O)CO)C[C@@H]3O[C@H]1C[C@H](N)[C@H](O)[C@H](C)O1", "note": "[DOXORUBICIN]", "values": [{"measurement": "IC50", "setting": "C-33-A", "value": 0.28, "unit": "µg/mL"}, {"measurement": "IC50", "setting": "MCF7", "value": 0.45, "unit": "µg/mL"}, {"measurement": "IC50", "setting": "KB", "value": 0.12, "unit": "µg/mL"}, {"measurement": "IC50", "setting": "A549", "value": 0.33, "unit": "µg/mL"}]}]}
